According to publication PMC6508865, “Dynamics of thymol dietary supplementation in quail (Coturnix japonica): Linking bioavailability, effects on egg yolk total fatty acids and performance traits” (PLoS ONE, 2019):

System: female Japanese quail (Coturnix japonica)
Experiment: Total fatty acid analysis in egg yolks (GC/MS of FAME)
Format: in vivo
Settings: for egg yolk SFA reduction disappeared after post-supplementation / persistence of reduced egg yolk 16:0 concentration after post-supplementation / persistence of reduced egg yolk 18:0 concentration after post-supplementation: 21 days of pS
Source text: All birds continued receiving a basal diet between 85 and 100 days of age and all variables (see below for details) were registered along this period (Pre-supplementation period, Fig 1). […] Once finished the S period, half of the quail were slaughtered for histological analysis (n = 25; Slaughter 1, Fig 1) and the other half were subjected to a pS period of 21 days, during which all females received the BASAL diet (pS, Fig 1). After this period, the remaining 25 animals were also slaughtered for histological analysis (Slaughter 2, Fig 1). In this way, we assessed whether THY induced changes in variables indicative of tissue damage and if so, whether the potential damages could reverse after 3 weeks of supplement withdrawal.
To assess changes in egg yolk total FA composition, egg physical characteristics, laying rate, body weight, feed intake and general welfare, during the S and pS periods, five sampling points were defined (Sample points, Fig 1): one initial sample point (at 0 days of S); three sample points during the S period (at 7, 14 and 28 days of S); and one sample point at the end of the pS period (21 days of pS). It should be noted that for determinations of THY concentration, eggs and quail droppings were collected offset from the other variables measured by 2 days, thus were collected on days 2, 9, 16, and 26 days of S, and 17 days of pS, respectively.
Eggs were obtained at each sample point (Sample points, Fig 1) and stored at -20°C until yolk total fatty acids analysis. Lipids were extracted from the yolk following homogenization in a suitable excess of chloroform/methanol (2:1 v/v). The solvents were removed under reduced pressure in a rotary evaporator. Lipids were subjected to alkaline saponification (1 mol/L potassium hydroxide in methanol), and the unsaponifiable matter was extracted with n-hexane. The fatty acid methyl esters (FAMEs) were prepared by transmethylation through treatment with 1 mol/L sulfuric acid in methanol and analyzed by gas chromatography/mass spectrometry (GC/MS). All chemicals used in this study were reagent-grade commercial products. FAMEs were analyzed by gas chromatography on a 60 m fused capillary column with an internal diameter of 0.25 mm (PerkinElmer Elite-WAX Polyethylene Glycol). The analysis was performed on a PerkinElmer Clarus® 600 GC/MS system equipped with a flame ionization detector (Waltham, MA, USA). […] The injection port temperature was 250°C and the detector temperature was 250°C. […] Peak identification was carried out by comparing the known retention times for the fatty acids reported with the temperature program and the chromatographic system used.

[1] = THY6, 6.25 g of thymol/kg of feed
[2] = all THY supplemented diets (2, 4, 6.25 g/kg of feed)

For Cc1ccc(C(C)C)c(O)c1 [THY, 2 isopropyl-5-methylphenol], the “effect on egg yolk MUFA” value (2, 4, 6.25 g of thymol/kg of feed, diet, time of sampling or interaction) was “No differences”, the “supplementation time by which reduced egg yolk 16:0 (palmitic acid) concentration was achieved” value (THY2, 2 g of thymol/kg of feed) was 28 days of S and the “supplementation time by which reduced egg yolk 18:0 (stearic acid) concentration was achieved” value (THY2, 2 g of thymol/kg of feed) was 28 days of S. For the same compound, the “supplementation time required for increasing egg yolk 22:5 (docosapentaenoic acid)” value (THY2, 2 g of thymol/kg of feed) was 14 days of S, the “supplementation time required to reduce egg yolk SFA concentration” value (THY2, 2 g of thymol/kg of feed) was 28 days of S and the “egg yolk SFA reduction disappeared after post-supplementation” value (from here on “egg yolk SFA reduction disappeared”) (THY2, 2 g of thymol/kg of feed) was “disappeared”. For the same compound, the “persistence of reduced egg yolk 16:0 concentration after post-supplementation” value (THY2, 2 g of thymol/kg of feed) was “returned to initial levels”, the “persistence of reduced egg yolk 18:0 concentration after post-supplementation” value (THY2, 2 g of thymol/kg of feed) was “continued” and the “effect on egg yolk PUFA concentration” value (THY2, 2 g of thymol/kg of feed, S period) was “failed to increase PUFA”. The “effect on egg yolk 16:1 (palmitoleic acid)” value (“effect … (palmitoleic acid)” for short) (THY2, 2 g of thymol/kg of feed, by 7 and 14 days of S) was “transient decrease”, the “day of supplementation by which egg yolk polyunsaturated fatty acids increased” value (THY4, 4 g of thymol/kg of feed) was 14 day of supplementation and the “supplementation time by which reduced egg yolk 16:0 (palmitic acid) concentration was achieved” value (THY4, 4 g of thymol/kg of feed) was 14 days of S. For the same compound, the “supplementation time by which reduced egg yolk 18:0 (stearic acid) concentration was achieved” value (THY4, 4 g of thymol/kg of feed) was 14 days of S, the “supplementation time from which egg yolk 18:3 (linolenic acid) concentration was higher” value (THY4, 4 g of thymol/kg of feed) was 14 days of S and the “supplementation time from which egg yolk 20:4 (arachidonic acid) concentration was higher” value (THY4, 4 g of thymol/kg of feed) was 14 days of S. For the same compound, the “supplementation time required for increasing egg yolk 22:5 (docosapentaenoic acid)” value (THY4, 4 g of thymol/kg of feed) was 14 days of S, the “supplementation time required to reduce egg yolk SFA concentration” value (THY4, 4 g of thymol/kg of feed) was 14 days of S and the “egg yolk SFA reduction disappeared” value (THY4, 4 g of thymol/kg of feed) was “not”. The “persistence of reduced egg yolk 16:0 concentration after post-supplementation” value (THY4, 4 g of thymol/kg of feed) was “continued”, the “persistence of reduced egg yolk 18:0 concentration after post-supplementation” value (THY4, 4 g of thymol/kg of feed) was “continued” and the “effect on egg yolk PUFA concentration” value (THY4, 4 g of thymol/kg of feed, S period and 21 days of pS) was “induced PUFA increments that remained enhanced even at 21 days of pS”. For the same compound, the “effect … (palmitoleic acid)” value (THY4, 4 g of thymol/kg of feed, at 21 days of pS) was “transient decrease”, the “day of supplementation by which egg yolk polyunsaturated fatty acids increased” value [1] was 14 day of supplementation and the “supplementation time by which reduced egg yolk 16:0 (palmitic acid) concentration was achieved” value [1] was 14 days of S. The “supplementation time by which reduced egg yolk 18:0 (stearic acid) concentration was achieved” value [1] was 14 days of S, the “supplementation time from which egg yolk 18:3 (linolenic acid) concentration was higher” value [1] was 14 days of S and the “supplementation time from which egg yolk 20:4 (arachidonic acid) concentration was higher” value [1] was 14 days of S. The “supplementation time required for increasing egg yolk 22:5 (docosapentaenoic acid)” value [1] was 7 days of S, the “egg yolk SFA reduction disappeared” value [1] was “not” and the “persistence of reduced egg yolk 16:0 concentration after post-supplementation” value [1] was “continued”. For the same compound, the “persistence of reduced egg yolk 18:0 concentration after post-supplementation” value [1] was “returned to initial levels”, the “effect on egg yolk PUFA concentration” value (THY6, 6.25 g of thymol/kg of feed, S period and 21 days of pS) was “induced PUFA increments that remained enhanced even at 21 days of pS” and the “effect … (palmitoleic acid)” value (THY6, 6.25 g of thymol/kg of feed, at 21 days of pS) was “transient decrease”. The “supplementation time required to reduce egg yolk SFA concentration” value (THY6, 6.25 g of thymol/kg of feed, reduction of even greater magnitude) was 14 days of S, the “supplementation time from which egg yolk 20:5 (eicosapentaenoic acid) was increased” value [2] was 7 days of S and the “supplementation time from which egg yolk 22:6 (docosahexaenoic acid) was increased” value [2] was 7 days of S.
